{"source": "patent US20250134946A1", "about": "(GEL4MED, INC., priority 2021, published 2025)", "key": {"[1]": {"test": "Net peptide charge and isoelectric point (FIGS. 9-10)", "format": "physicochemical", "conditions": "pH 7", "source_text": "The peptide may be purified. For example, the peptide may be lyophilized. […] Other peptides are within the scope of the disclosure.\nExemplary peptides having a charge of +5 to +9 include […](d)[…], […](d)[…], and […](d)[…]. In other embodiments, the purified peptide may be substantially neutral. […] Net charge may be selected by peptide design. Design of electrostatic charge in the peptide hydrogel may allow control of charge interaction with cell membrane and proteins."}, "[2]": {"test_system": "decorin", "test": "ChaseABC release from peptide hydrogels, bioactivity on decorin (FIGS. 6B, 15)", "conditions": "pilot data, days 3 and 5", "source_text": "The protein was not degraded.\nIn addition to release and retention rates, in analogous experiments the released and retained ChaseABC enzyme will also be assayed for bioactivity. Activity will be assessed through the efficacy of the sample to digest the small proteoglycan decorin as described previously.\nImportantly, the protein was not degraded."}, "[3]": {"conditions": "cited from earlier work"}}, "note": "Non-standard residues stand in square brackets, D forms with d. No end group written: not given here.", "data": [{"molecule": "VEVSVSVEV(d)PPTEVSVEVEV (VEVSVSVEV[dP]PTEVSVEVEV)", "values": [{"measurement": "net charge", "setting": "[1]", "value": "net negative charge"}]}, {"molecule": "chondroitinase ABC [ChaseABC]", "values": [{"measurement": "bioactivity of released enzyme on decorin substrate", "setting": "[2]", "value": "release of bioactive enzyme from the gel was demonstrated"}]}, {"molecule": "NCCCC[C@H](N)C(=O)O", "note": "[lysine]", "values": [{"measurement": "side chain pKa", "setting": "[3]", "value": "about 10.5"}]}, {"molecule": "O=C(O)C(F)(F)F", "note": "[trifluoroacetic acid]", "values": [{"measurement": "pKa", "setting": "[3]", "value": "about 0"}]}]}
